Data from ChEMBL document CHEMBL5523759, “Discovery of Novel HDAC3 Inhibitors with PD-L1 Downregulating/Degrading and Antitumor Immune Effects” (J Med Chem, 2024).
Active and inactive are the calls of the source. No cut-off for these calls is given here.

Experiments:
[1] = Metabolic stability in rat liver microsome assessed as parent compound remaining measured at 45 mins; assay type: ADME; conditions: liver microsomes, read-out: Stability
[2] = molecular target: Programmed cell death 1 ligand 1 (Mus musculus) (UniProt Q9EP73); experiment: Induction of PD-L1 degradation in mouse B16-F10 cells assessed as upregulation of CTSB level at 1 to 4 uM measured for 4 hrs in presence of CA-074 by Western blot analysis; assay type: cell-based; conditions: dose 1-4 µM
Chain of Programmed cell death 1 ligand 1 (Mus musculus) (Q9EP73 whole entry): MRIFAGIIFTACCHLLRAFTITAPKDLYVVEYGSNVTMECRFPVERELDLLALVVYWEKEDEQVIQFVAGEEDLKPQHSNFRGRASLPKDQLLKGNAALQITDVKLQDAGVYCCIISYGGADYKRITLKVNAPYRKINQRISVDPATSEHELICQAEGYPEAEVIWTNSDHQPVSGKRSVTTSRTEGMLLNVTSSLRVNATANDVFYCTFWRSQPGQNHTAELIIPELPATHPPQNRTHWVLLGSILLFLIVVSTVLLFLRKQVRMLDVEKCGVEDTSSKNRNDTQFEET

B16-F10 [3] = experiment: Antitumor activity against mouse B16-F10 cells implanted in C57BL/6 mouse model assessed as […] in Ac-H3 expression in tumor at 25 mg/kg, po administered for 9 days by immunofluorescence analysis; assay type: functional, organism-based; conditions: time 9.0 day
[4] = molecular target: Programmed cell death 1 ligand 1 (Mus musculus) (UniProt Q9EP73); experiment: Induction of PD-L1 degradation in mouse B16-F10 cells assessed as upregulation of CTSB level at 1 to 4 uM measured for 4 hrs by Western blot analysis; assay type: cell-based; conditions: dose 1-4 µM
[5] = Tmax in Sprague-Dawley rat at 2 mg/kg, iv measured up to 12 hrs by LC-MS/MS analysis; assay type: ADME, organism-based; conditions: in vivo
[6] = Metabolic stability in mouse liver microsome assessed as half life; assay type: ADME; conditions: liver microsomes
[7] = Metabolic stability in rat liver microsome assessed as parent compound remaining measured immediately; assay type: ADME; conditions: liver microsomes, read-out: Stability
[8] = Acute toxicity in C57BL/6J mouse assessed as survival rate at 500 mg/kg, po administered for 14 days; assay type: organism-based; conditions: in vivo, time 14 day
[9] = Metabolic stability in rat liver microsome assessed as intrinsic clearance; assay type: ADME; conditions: liver microsomes, read-out: CLH
[10] = Oral bioavailability in Sprague-Dawley rat at 20 mg/kg measured up to 12 hrs by LC-MS/MS analysis; assay type: ADME, organism-based; conditions: in vivo
B16-F10 [11] = experiment: Antitumor activity against mouse B16-F10 cells implanted in C57BL/6 mouse model assessed as decrease in PD-L1 level at 25 mg/kg, po administered for 9 days by Western blot analysis; assay type: functional, organism-based; conditions: time 9.0 day
[12] = Metabolic stability in mouse liver microsome assessed as parent compound remaining measured at 45 mins; assay type: ADME; conditions: liver microsomes, read-out: Stability
[13] = Cmax in Sprague-Dawley rat at 2 mg/kg, iv measured up to 12 hrs by LC-MS/MS analysis; assay type: ADME, organism-based; conditions: in vivo
[14] = Metabolic stability in rat liver microsome assessed as parent compound remaining measured at 15 mins; assay type: ADME; conditions: liver microsomes, read-out: Stability
[15] = Metabolic stability in rat liver microsome assessed as parent compound remaining measured at 5 mins; assay type: ADME; conditions: liver microsomes, read-out: Stability
[16] = Acute toxicity in C57BL/6J mouse assessed as survival rate at 1000 mg/kg, po administered for 14 days; assay type: organism-based; conditions: in vivo, time 14 day
[17] = molecular target: Programmed cell death 1 ligand 1 (Mus musculus, UniProt Q9EP73); experiment: Induction of PD-L1 degradation in mouse B16-F10 cells measured for 24 hrs by Western blot analysis; assay type: cell-based
Chain of Programmed cell death 1 ligand 1 (Q9EP73 whole entry): as above

B16-F10 [18] = experiment: Antitumor activity against mouse B16-F10 cells implanted in C57BL/6 mouse model assessed as upregulation of Ac-H3 expression at 25 mg/kg, po administered for 9 days by Western blot analysis; assay type: functional, organism-based; conditions: time 9.0 day
[19] = Toxicity in C57BL/6 mouse implanted with mouse B16-F10 cells assessed as kidney damage at 25 mg/kg, po administered for 9 days by H and E staining based analysis; assay type: organism-based; conditions: in vivo, 216 h, time 9 day
[20] = Metabolic stability in mouse liver microsome assessed as parent compound remaining measured at 30 mins; assay type: ADME; conditions: liver microsomes, read-out: Stability
[21] = MRT (0 to t) in Sprague-Dawley rat at 2 mg/kg, iv measured up to 12 hrs by LC-MS/MS analysis; assay type: ADME, organism-based; conditions: in vivo
[22] = Metabolic stability in mouse liver microsome assessed as parent compound remaining measured at 5 mins; assay type: ADME; conditions: liver microsomes, read-out: Stability
[23] = AUC (0 to infinity) in Sprague-Dawley rat at 20 mg/kg, po measured up to 12 hrs by LC-MS/MS analysis; assay type: ADME, organism-based; conditions: in vivo
[24] = Toxicity in C57BL/6 mouse implanted with mouse B16-F10 cells assessed as liver damage at 25 mg/kg, po administered for 9 days by H and E staining based analysis; assay type: organism-based; conditions: in vivo, 216 h, time 9 day
[25] = Toxicity in C57BL/6 mouse implanted with mouse B16-F10 cells assessed as lung damage at 25 mg/kg, po administered for 9 days by H and E staining based analysis; assay type: organism-based; conditions: in vivo, 216 h, time 9 day
[26] = Toxicity in C57BL/6 mouse implanted with mouse B16-F10 cells assessed as heart damage at 25 mg/kg, po administered for 9 days by H and E staining based analysis; assay type: organism-based; conditions: in vivo, 216 h, time 9 day
[27] = Acute toxicity in po dosed C57BL/6J mouse assessed as lethal dose administered for 14 days; assay type: organism-based; conditions: in vivo, time 14 day
Tubulin = experiment: Inhibition of tubulin polymerization (unknown origin) measured upto 20 mins by spectrophotometer analysis; assay type: protein-complex assay, Homo sapiens
[28] = MRT (0 to t) in Sprague-Dawley rat at 20 mg/kg, po measured up to 12 hrs by LC-MS/MS analysis; assay type: ADME, organism-based; conditions: in vivo
B16-F10 [29] = experiment: Antitumor immunity against mouse B16-F10 cells implanted in C57BL/6 mouse model assessed as increase in CD3+ CD8+ T cells at 25 mg/kg, po administered for 9 days (reference value: 1.01%); assay type: functional; conditions: time 9 day
[30] = Apparent volume of distribution in Sprague-Dawley rat at 20 mg/kg, po measured up to 12 hrs by LC-MS/MS analysis; assay type: ADME, organism-based; conditions: in vivo
[31] = Half life in Sprague-Dawley rat at 2 mg/kg, iv measured up to 12 hrs by LC-MS/MS analysis; assay type: ADME, organism-based; conditions: in vivo
[32] = MRT (0 to infinity) in Sprague-Dawley rat at 20 mg/kg, po measured up to 12 hrs by LC-MS/MS analysis; assay type: ADME, organism-based; conditions: in vivo
[33] = Clearance in Sprague-Dawley rat at 20 mg/kg, po measured up to 12 hrs by LC-MS/MS analysis; assay type: ADME, organism-based; conditions: in vivo
B16-F10 [34] = experiment: Antitumor activity against mouse B16-F10 cells implanted in C57BL/6 mouse model assessed as induction of PD-L1 degradation at 25 mg/kg, po administered for 9 days by Western blot analysis; assay type: functional, organism-based; conditions: time 9.0 day
B16-F10 [35] = experiment: Antitumor activity against mouse B16-F10 cells implanted in C57BL/6 mouse model assessed as tumor growth inhibition at 25 mg/kg, IG administered for 9 days; assay type: functional; conditions: B16-F10, po, 216 h, time 9 day, read-out: TGI
B16-F10 [36] = experiment: Antitumor activity against mouse B16-F10 cells implanted in C57BL/6 mouse model assessed as increase in Ac-H3 expression in tumor at 25 mg/kg, po administered for 9 days by Western blot analysis; assay type: functional, organism-based; conditions: time 9.0 day
[37] = AUC (0 to infinity) in Sprague-Dawley rat at 2 mg/kg, iv measured up to 12 hrs by LC-MS/MS analysis; assay type: ADME, organism-based; conditions: in vivo

CCCNNC(=O)c1ccc(CNC(=O)c2ncc(CNc3ccccc3)s2)cc1
remaining at 0.75 h [1]: 25.4% | Activity [2]: Active | Activity (B16-F10 [3]): Active | Activity [4]: Active | Tmax [5]: 8.4 min | half-life [6]: 9.69 min | remaining at 0 min [7]: 100% | survival at 336 h [8]: 100% | CLint scaled [9]: 107 mL/min/kg | bioavailability [10]: 57% | Activity (B16-F10 [11]): Active | remaining at 0.75 h [12]: 4.03% | Cmax [13]: 725 ng/mL | remaining at 0.25 h [14]: 57.5% | remaining at 5 min [15]: 79.9% | survival at 336 h [16]: 80% | DC50 [17]: 5.7 µM | Activity (B16-F10 [18]): Active | Activity [19]: Non-Toxic | remaining at 0.5 h [20]: 11.3% | MRT last at 12 h [21]: 31.2 min | remaining at 5 min [22]: 70.4% | AUC(0-inf) [23]: 3030 ng·h/mL | Activity [24]: Non-Toxic | Activity [25]: Non-Toxic | Activity [26]: Non-Toxic | LD50 at 336 h [27]: > 1000 mg/kg | IC50 (Tubulin): 7.3 µM | MRT last at 12 h [28]: 191 min | Activity (B16-F10 [29]): 3.7% | Vz [30]: 34.45 L/kg | half-life [31]: 24 min | MRT inf [32]: 269 min | CL/F [33]: 121 mL/min/kg | Activity (B16-F10 [34]): Active | inhibition in vivo at 25 mg/kg (B16-F10 [35]): 37% | Activity (B16-F10 [36]): Active | AUC(0-inf) [37]: 529 ng·h/mL
